ChEMBL document CHEMBL1136660, “Novel 5-cyclopropyl-1,4-benzodiazepin-2-ones as potent and selective I(Ks)-blocking class III antiarrhythmic agents” (Bioorg Med Chem Lett, 2003)

How the values were obtained:
Cavia porcellus [1] = species on record: Cavia porcellus; assay: Inhibitory concentration against IKs current was measured in isolated guinea pig myocytes during a 1 s voltage clamp step […]; format: functional
Cavia porcellus [2] = species on record: Cavia porcellus; assay: Inhibitory concentration against IKr current was measured in isolated guinea pig myocytes during a 0.5 s voltage clamp step from -50 to -10 mV; format: functional
[3] = Percent metabolized in an in vitro human liver microsomal incubation assay after 60 min; format: ADME, Microsome; details: liver microsomes, read-out: Metabolism
Canis familiaris [4] = assay: Ventricular relative Refractory period (msec) of compound was measured in chloralose anesthetized dogs (for its Class III activity in vivo) at dose of 0.01 mg/kg (iv); format: functional, Canis lupus familiaris, Heart
Canis familiaris [5] = assay: QTc interval of compound was measured in chloralose anesthetized dogs(for its Class III activity in vivo) at dose of 0.01 mg/kg (iv); units are msec/square root of sec; format: functional, Canis lupus familiaris
Canis familiaris [6] = assay: QTc interval of compound was measured in chloralose anesthetized dogs(for its Class III activity in vivo) at dose of 0.1 mg/kg (iv); units are msec/square root of sec; format: functional, Canis lupus familiaris
Canis familiaris [7] = assay: QTc interval of compound was measured in chloralose anesthetized dogs(for its Class III activity in vivo) at dose of 0.001 mg/kg (iv); units are msec/square root of sec; format: functional, Canis lupus familiaris
Canis familiaris [8] = assay: Ventricular relative Refractory period (msec) of compound was measured in chloralose anesthetized dogs (for its Class III activity in vivo) at dose of 0.1 mg/kg (iv); format: functional, Canis lupus familiaris, Heart
Canis familiaris [9] = assay: Ventricular relative Refractory period (msec) of compound was measured in chloralose anesthetized dogs (for its Class III activity in vivo) at dose of 0.001 mg/kg (iv); format: functional, Canis lupus familiaris, Heart

With `CC[C@H](C)N1C(=O)C(NC(=O)Cc2ccc(C(F)(F)F)cc2C(F)(F)F)N=C(C2CC2)c2ccccc21` (single isomer, unassigned; (-)) the IC50 (Cavia porcellus [1]) was 0.4 nM and the IC50 (Cavia porcellus [2]) was > 1000 nM.
In the case of `CC[C@@H](C)N1C(=O)C(NC(=O)Cc2ccc(C(F)(F)F)cc2C(F)(F)F)N=C(c2ccccc2)c2ccccc21` (stereo in doubt; 15 (-)), the IC50 (Cavia porcellus [1]) is reported as 44 nM and the IC50 (Cavia porcellus [2]) is reported as > 1000 nM.
With `CN1C(=O)C(NC(=O)Cc2ccc(C(F)(F)F)cc2C(F)(F)F)N=C(C2CC2)c2ccccc21` (single isomer, unassigned; (-)) the IC50 (Cavia porcellus [1]) was 280 nM and the IC50 (Cavia porcellus [2]) was > 1000 nM.
With `CC[C@H](C)N1C(=O)C(NC(=O)Cc2ccc(C(F)(F)F)cc2C(F)(F)F)N=C(C2CC2)c2ccccc21` (single isomer, unassigned; (+)) the IC50 (Cavia porcellus [1]) was 180 nM.
For `CCN1C(=O)C(NC(=O)Cc2ccc(C(F)(F)F)cc2C(F)(F)F)N=C(C2CC2)c2ccccc21` (single isomer, unassigned; (-)), the IC50 (Cavia porcellus [1]) was 4 nM.
With `CC[C@@H](C)N1C(=O)C(NC(=O)Cc2ccc(C(F)(F)F)cc2C(F)(F)F)N=C(C2CC2)c2ccccc21` (single isomer, unassigned; (+)) the IC50 (Cavia porcellus [1]) was 50 nM and the IC50 (Cavia porcellus [2]) was > 1000 nM.
For `O=C(Cc1ccc(C(F)(F)F)cc1C(F)(F)F)NC1N=C(C2CC2)c2ccccc2N(CC(F)(F)F)C1=O` (single isomer, unassigned; (+)), the IC50 (Cavia porcellus [1]; Cavia porcellus) was 1.5 nM, the IC50 (Cavia porcellus [2]) was > 1000 nM and the metabolised at 1 h [3] was ~15%.
In the case of `CC[C@@H](C)N1C(=O)C(NC(=O)Cc2ccc(C(F)(F)F)cc2C(F)(F)F)N=C(C2CC2)c2ccccc21` (single isomer, unassigned; (-)), the IC50 (Cavia porcellus [1]) is reported as 0.08 nM, the “Ventricular relative refractory period” value (Canis familiaris [4]) is reported as 180 ms and the “QTc Interval” value (Canis familiaris [5]) is reported as 392 ms s-1. For the same compound, the “QTc Interval” value (Canis familiaris [6]) was 454 ms s-1, the “QTc Interval” value (Canis familiaris [7]) was 384 ms s-1 and the “Ventricular relative refractory period” value (Canis familiaris [8]) was 198 ms. For the same compound, the “Ventricular relative refractory period” value (Canis familiaris [9]) was 176 ms.
`CN1C(=O)C(NC(=O)Cc2ccc(C(F)(F)F)cc2C(F)(F)F)N=C(C2CC2)c2ccccc21` (stereo in doubt; 4 (+)) showed an IC50 (Cavia porcellus [1]) of 38 nM.
`CCCN1C(=O)C(NC(=O)Cc2ccc(C(F)(F)F)cc2C(F)(F)F)N=C(C2CC2)c2ccccc21` (single isomer, unassigned; (-)) gave an IC50 (Cavia porcellus [1]) of 1.2 nM.
For `CCN1C(=O)C(NC(=O)Cc2ccc(C(F)(F)F)cc2C(F)(F)F)N=C(C2CC2)c2ccccc21` (stereo in doubt; 6 (+)), the IC50 (Cavia porcellus [1]) was 200 nM and the IC50 (Cavia porcellus [2]) was > 1000 nM.
In the case of `CC(C)C1=NC(NC(=O)Cc2ccc(C(F)(F)F)cc2C(F)(F)F)C(=O)N(CC(F)(F)F)c2ccccc21` (configuration not stated), the IC50 (Cavia porcellus [1]; Cavia porcellus) is reported as 6 nM, the IC50 (Cavia porcellus [2]) is reported as > 1000 nM and the metabolised at 1 h [3] is reported as 70%.
Compound `CC[C@@H](C)N1C(=O)C(NC(=O)Cc2ccc(C(F)(F)F)cc2C(F)(F)F)N=C(c2ccccc2)c2ccccc21` (single isomer, unassigned; (+)) has an IC50 (Cavia porcellus [1]) of 3.7 nM.
For `CCCN1C(=O)C(NC(=O)Cc2ccc(C(F)(F)F)cc2C(F)(F)F)N=C(C2CC2)c2ccccc21` (single isomer, unassigned; (+)), the IC50 (Cavia porcellus [1]) was 165 nM and the IC50 (Cavia porcellus [2]) was > 1000 nM.
Work on `O=C(Cc1ccc(C(F)(F)F)cc1C(F)(F)F)N[C@@H]1N=C(c2ccccc2)c2ccccc2N(CC(F)(F)F)C1=O` [L-768673] yielded an IC50 (Cavia porcellus [1]; Cavia porcellus) of 6 nM and an IC50 (Cavia porcellus [2]) of 6000 nM.
